In ChEMBL document CHEMBL1137021, “The phenolic diterpene totarol inhibits multidrug efflux pump activity in Staphylococcus aureus” (Antimicrob Agents Chemother, 2007):
Values after ≈ are worked out from the molar mass of the structure shown. Active and inactive are the calls of the source. The calls are words filed in the database; no cut-off is given here.

How the values were obtained:
Staphylococcus aureus [1] = experiment: Antimicrobial activity against NorA deficient Staphylococcus aureus K1758; type: functional
Staphylococcus aureus [2] = experiment: Antimicrobial activity against Staphylococcus aureus NCTC 8325-4 expressing NorA gene; type: functional
Staphylococcus aureus [3] = experiment: Antimicrobial activity against Staphylococcus aureus K3092 overexpressing NorA gene; type: functional
Staphylococcus aureus [4] = experiment: Antimicrobial activity against totarol-resistant Staphylococcus aureus K3090; type: functional
[5] = biological target: T1, Quinolone resistance protein NorA (Staphylococcus aureus, UniProt P0A0J7); experiment: Inhibition of NorA efflux pump in Staphylococcus aureus K3092 assessed as inhibition of EtBr efflux
T1 sequence (P0A0J7 whole entry): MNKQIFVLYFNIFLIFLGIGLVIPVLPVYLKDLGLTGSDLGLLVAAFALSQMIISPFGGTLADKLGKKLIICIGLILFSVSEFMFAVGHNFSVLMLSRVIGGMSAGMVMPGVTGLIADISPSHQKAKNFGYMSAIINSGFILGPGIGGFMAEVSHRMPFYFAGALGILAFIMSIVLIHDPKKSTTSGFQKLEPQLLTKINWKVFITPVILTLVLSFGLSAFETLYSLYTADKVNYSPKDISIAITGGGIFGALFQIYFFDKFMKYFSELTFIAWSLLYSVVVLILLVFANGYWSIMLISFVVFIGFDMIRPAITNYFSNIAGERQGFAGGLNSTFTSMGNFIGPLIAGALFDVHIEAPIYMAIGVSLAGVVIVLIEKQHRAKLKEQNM

[6] = biological target: T2, Quinolone resistance protein NorA (Staphylococcus aureus) (UniProt P0A0J7); experiment: Inhibition of NorA efflux pump in Staphylococcus aureus K3092 assessed as reduction in ethidium bromide MIC
T2 sequence (whole entry): T1 sequence (P0A0J7 whole entry)

Staphylococcus aureus [7] = experiment: Inhibition of tetK efflux pump in Staphylococcus aureus XU212 assessed as reduction in tetracycline MIC at 1 ug/ml
[8] = biological target: T2, Quinolone resistance protein NorA (Staphylococcus aureus); experiment: Inhibition of NorA efflux pump in Staphylococcus aureus 1199B assessed as reduction in ethidium bromide MIC
Staphylococcus aureus [9] = experiment: Antimicrobial activity against Staphylococcus aureus 1199B expressing NorA pump; type: functional, organism-based
Staphylococcus aureus [10] = experiment: Antimicrobial activity against Staphylococcus aureus RN4220 expressing MsrA protein; type: functional, organism-based
Staphylococcus aureus [11] = experiment: Inhibition of MsrA efflux pump in Staphylococcus aureus RN4220 assessed as reduction in erythromycin MIC at 1 ug/ml
[12] = biological target: T2, Quinolone resistance protein NorA (Staphylococcus aureus); experiment: Inhibition of NorA efflux pump in Staphylococcus aureus isolate15 assessed as potentiation of oxacillin MIC
Staphylococcus aureus [13] = experiment: Antimicrobial activity against Staphylococcus aureus XU212 expressing tetK pump; type: functional, organism-based
[14] = biological target: T2, Quinolone resistance protein NorA (Staphylococcus aureus); experiment: Inhibition of NorA efflux pump in methicillin-resistant Staphylococcus aureus assessed as reduction in methicillin MIC
[15] = biological target: T2, Quinolone resistance protein NorA (Staphylococcus aureus); experiment: Inhibition of NorA efflux pump in Staphylococcus aureus 1199B assessed as reduction in Norfloxacin MIC at 1 ug/ml
[16] = Ratio of inhibition of CHO cells to IC50 for chloroquine-resistant Plasmodium falciparum
Plasmodium falciparum = experiment: Antiplasmodial activity against chloroquine-resistant Plasmodium falciparum; type: functional, organism-based
Staphylococcus aureus [17] = experiment: Antimicrobial activity against Staphylococcus aureus ATCC 25923; type: functional

| Compound | MIC (Staphylococcus aureus [1]) [µg/mL] | MIC (Staphylococcus aureus [2]) [µg/mL] | MIC (Staphylococcus aureus [3]) [µg/mL] | MIC (Staphylococcus aureus [4]) [µg/mL] | IC50 [5] [µM] | Activity [6] | fold change (FC) (Staphylococcus aureus [7]) | Activity [8] | Activity (Staphylococcus aureus [9]) | Activity (Staphylococcus aureus [10]) | fold change (FC) (Staphylococcus aureus [11]) | fold change (FC) [12] | Activity (Staphylococcus aureus [13]) | fold change (FC) [14] | fold change (FC) [15] | Ratio [16] | IC50 (Plasmodium falciparum) [µM] | MIC (Staphylococcus aureus [17]) [µg/mL] |
| --- | --- | --- | --- | --- | --- | --- | --- | --- | --- | --- | --- | --- | --- | --- | --- | --- | --- | --- |
| CC[n+]1c(-c2ccccc2)c2cc(N)ccc2c2ccc(N)cc21.[Br-] [HOMIDIUM BROMIDE] | 0.63 | 6.25 | 100 | 0.63 | – | – | – | – | – | – | – | – | – | – | – | – | – | – |
| COC(=O)[C@H]1[C@H]2C[C@@H]3c4[nH]c5cc(OC)ccc5c4CCN3C[C@H]2C[C@@H](OC(=O)c2cc(OC)c(OC)c(OC)c2)[C@@H]1OC [RESERPINE] | – | – | – | – | 8 | – | – | – | – | – | – | – | – | – | – | – | – | – |
| CC(C)c1c(O)ccc2c1CC[C@H]1C(C)(C)CCC[C@]21C [TOTAROL] | 1.25 (≈ 4.36 µM) | 2.5 (≈ 8.73 µM) | 16 (≈ 55.9 µM) | 16 (≈ 55.9 µM) | 15 | Active | 4 | Active | Active | Active | 8 | 50 | Active | 8 | 4 | 40 | 4.29 | 2 (≈ 6.98 µM) |
